Experimental data taken from patent publication US8410097B2 (priority 2005, dated 2013).
Read-outs that look alike come from different tables or passages of the source.

Experiments:
[1] = target: CB2 cannabinoid receptor (Mus musculus, UniProt P47936); assay: biochemical; assay type: binding; conditions: mouse spleen membranes, [3H] CP-55,940
Description: Some of the inventive analogs were tested for CB2 receptor binding affinity and for CB1 receptor affinity (to determine selectivity). […] The lower the Ki value the higher the binding affinity.
(§1) The treated membranes were subsequently used in the binding assay described below. Approximately 30 μg of membranes were incubated in silanized 96-well microtiter plate with TME containing 0.1% essentially fatty acid-free bovine serum albumin (BSA), 0.8 nM [^3H] […] Radioactivity was detected using MicroScint 20 scintillation cocktail added directly to the dried filterplates, and the filterplates were counted using a Packard Instruments Top-Count. […] Data collected from three independent experiments performed with duplicate determinations was normalized between 100% and 0% specific binding for [^3H] […] The normalized data was analyzed using a 4-parameter nonlinear logistic equation to yield IC50 values.
Silanized centrifuge tubes were used throughout to minimize receptor loss due to adsorption. The CB2 binding assay was conducted in the same manner as for the CB1 binding assay. The binding affinities (Ki) were also expressed in nanomoles (nM).

[2] = target: T1, CB1 cannabinoid receptor (Rattus norvegicus, UniProt P20272); assay: biochemical; assay type: binding; conditions: rat forebrain membranes, 0.8 nM [3H] CP-55,940
T1 construct: membranes were prepared from rat forebrain membranes; from tissue; host or cells: rat forebrain membranes
T1 sequence (P20272 whole entry): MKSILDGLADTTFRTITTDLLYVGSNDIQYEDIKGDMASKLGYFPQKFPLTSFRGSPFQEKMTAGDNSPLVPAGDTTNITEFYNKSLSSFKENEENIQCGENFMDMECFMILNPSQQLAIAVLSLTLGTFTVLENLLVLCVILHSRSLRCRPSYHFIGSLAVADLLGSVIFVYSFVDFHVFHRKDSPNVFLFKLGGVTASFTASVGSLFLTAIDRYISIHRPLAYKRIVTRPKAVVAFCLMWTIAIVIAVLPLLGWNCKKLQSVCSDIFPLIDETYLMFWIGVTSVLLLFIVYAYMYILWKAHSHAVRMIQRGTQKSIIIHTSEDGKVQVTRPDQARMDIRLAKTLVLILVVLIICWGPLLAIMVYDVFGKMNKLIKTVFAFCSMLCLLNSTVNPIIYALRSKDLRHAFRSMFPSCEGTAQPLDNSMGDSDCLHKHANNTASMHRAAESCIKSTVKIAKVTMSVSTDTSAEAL
Description: Some of the inventive analogs were tested for CB2 receptor binding affinity and for CB1 receptor affinity (to determine selectivity). […] The lower the Ki value the higher the binding affinity. […]
Membranes, previously frozen at −80° C., were thawed on ice. To the stirred suspension was added three volumes of TME (25 mM Tris-HCl buffer, 5 mM MgCl2 and 1 mM EDTA) at a pH 7.4. The suspension was incubated at 4° C. for 30 min. At the end of the incubation, the membranes were pelleted and washed three times with TME.
as §1

Sequence of CB2 cannabinoid receptor (P47936 whole entry): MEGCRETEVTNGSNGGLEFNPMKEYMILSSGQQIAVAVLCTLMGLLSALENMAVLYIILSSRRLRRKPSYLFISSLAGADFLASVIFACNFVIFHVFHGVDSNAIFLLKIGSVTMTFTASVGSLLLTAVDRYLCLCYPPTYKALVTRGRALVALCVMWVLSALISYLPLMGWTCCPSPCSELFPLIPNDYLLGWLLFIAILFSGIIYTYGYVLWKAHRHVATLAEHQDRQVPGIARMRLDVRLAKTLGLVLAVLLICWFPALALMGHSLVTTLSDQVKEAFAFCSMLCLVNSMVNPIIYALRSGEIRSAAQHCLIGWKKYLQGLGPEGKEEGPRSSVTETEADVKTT

## Cc1c(C(=O)N(C)C2CCCCC2)nc(-c2ccc(Cl)cc2Cl)n1-c1ccc(-c2nnnn2C)cc1 [Compound 1-23]
[1]; CB2 Ki, Table 6
  Ki: 4150 nM
[2]; CB1 Ki, Table 6
  Ki: 982 nM

## Cc1c(C(=O)N(C)C2CCCCC2)nc(-c2ccc(Cl)cc2Cl)n1-c1ccc(-c2nnn(C)n2)cc1 [Compound 1-24]
[1]; Table 6, read-out: CB2 Ki
  Ki: 220 nM
[2]; CB1 Ki, Table 6
  Ki: 11.2 nM

## CN(C(=O)c1nc(-c2ccc(Cl)cc2Cl)n(-c2ccc(-c3nnn[nH]3)cc2)c1CO)C1CCCCC1 [Compound 1-25]
[1]; Table 6, read-out: CB2 Ki
  Ki: 858 nM
[2]; Table 6, read-out: CB1 Ki
  Ki: 5210 nM

## CN(C(=O)c1nc(-c2ccc(Cl)cc2Cl)n(-c2ccc(-c3nnnn3C)cc2)c1CO)C1CCCCC1 [Compound 1-26]
[1]; Table 6, read-out: CB2 Ki
  Ki: 1320 nM
[2]; Table 6, read-out: CB1 Ki
  Ki: 101 nM

## CN(C(=O)c1nc(-c2ccc(Cl)cc2Cl)n(-c2ccc(-c3nnn(C)n3)cc2)c1CO)C1CCCCC1 [Compound 1-27]
[1]; Table 6, read-out: CB2 Ki
  Ki: 620 nM
[2]; CB1 Ki, Table 6
  Ki: 19 nM

## Cc1c(C(=O)NN2CCCCC2)nc(-c2ccc(Cl)cc2Cl)n1-c1ccc(-c2nccs2)cc1 [Compound 1-28]
[1]; Table 6, read-out: CB2 Ki
  Ki: 656 nM
[2]; CB1 Ki, Table 6
  Ki: 7.7 nM

## N=C(S)c1ccc(-n2c(-c3ccc(Cl)cc3Cl)nc(C(=O)NN3CCCCC3)c2CO)cc1 [Compound 1-29]
[1]; Table 6, read-out: CB2 Ki
  Ki: 640 nM
[2]; CB1 Ki, Table 6
  Ki: 47.6 nM

## O=C(NN1CCCCC1)c1nc(-c2ccc(Cl)cc2Cl)n(-c2ccc(-c3nccs3)cc2)c1CO [Compound 1-30]
[1]; Table 6, read-out: CB2 Ki
  Ki: 1510 nM
[2]; CB1 Ki, Table 6
  Ki: 23.9 nM

## Cc1c(C(=O)NN2CCCCC2)nc(-c2ccc(Cl)cc2Cl)n1-c1ccc(C#CCO)cc1 [Compound 1-31]
[1]; Table 6, read-out: CB2 Ki
  Ki: 1140 nM
[2]; CB1 Ki, Table 6
  Ki: 18 nM

## Cc1c(C(=O)NN2CCCCC2)nc(-c2ccc(Cl)cc2Cl)n1-c1ccc(C#CCCO)cc1 [Compound 1-32]
[1]; Table 6, read-out: CB2 Ki
  Ki: 5090 nM
[2]; CB1 Ki, Table 6
  Ki: 6.2 nM

## Cc1c(C(=O)NN2CCCCC2)nc(-c2ccc(Cl)cc2Cl)n1-c1ccc(C#CCCC#N)cc1 [Compound 1-33]
[1]; Table 6, read-out: CB2 Ki
  Ki: 271 nM
[2]; CB1 Ki, Table 6
  Ki: 1.6 nM

## O=C(NN1CCCCC1)c1nc(-c2ccc(Cl)cc2Cl)n(-c2ccc(C#CCO)cc2)c1CO [Compound 1-34]
[1]; CB2 Ki, Table 6
  Ki: 5360 nM
[2]; CB1 Ki, Table 6
  Ki: 23.2 nM

## Cc1c(NC(=O)NC2CCCCC2)nc(-c2ccc(Cl)cc2Cl)n1-c1ccc(Br)cc1 [Compound 1-35]
[1]; CB2 Ki, Table 6
  Ki: 20500 nM
[2]; CB1 Ki, Table 6
  Ki: 6.9 nM

## Cc1c(NC(=O)NC2CCCCC2)nc(-c2ccc(Cl)cc2Cl)n1-c1ccc(I)cc1 [Compound 1-36]
[1]; Table 6, read-out: CB2 Ki
  Ki: 7240 nM
[2]; CB1 Ki, Table 6
  Ki: 1.2 nM

## Cc1c(NC(=O)N(C)C2CCCCC2)nc(-c2ccc(Cl)cc2Cl)n1-c1ccc(Br)cc1 [Compound 1-37]
[1]; Table 6, read-out: CB2 Ki
  Ki: 1420 nM
[2]; CB1 Ki, Table 6
  Ki: 14.2 nM

## O=C(Nc1nc(-c2ccc(Cl)cc2Cl)n(-c2ccc(I)cc2)c1CBr)NC1CCCCC1 [Compound 1-38]
[1]; Table 6, read-out: CB2 Ki
  Ki: 75.3 nM
[2]; CB1 Ki, Table 6
  Ki: 5 nM

## O=C(Nc1nc(-c2ccc(Cl)cc2Cl)n(-c2ccc(I)cc2)c1CO)NC1CCCCC1 [Compound 1-39]
[1]; Table 6, read-out: CB2 Ki
  Ki: 1340 nM
[2]; CB1 Ki, Table 6
  Ki: 6.8 nM

## CN(C(=O)Nc1nc(-c2ccc(Cl)cc2Cl)n(-c2ccc(Br)cc2)c1CO)C1CCCCC1 [Compound 1-40]
[1]; Table 6, read-out: CB2 Ki
  Ki: 1020 nM
[2]; CB1 Ki, Table 6
  Ki: 10 nM

## [N-]=[N+]=NCc1c(C(=O)NN2CCCCC2)nc(-c2ccc(Cl)cc2Cl)n1-c1ccc(Br)cc1 [Compound 1-41]
[1]; Table 6, read-out: CB2 Ki
  Ki: 954 nM
[2]; CB1 Ki, Table 6
  Ki: 7 nM

## Cc1c(C(=O)NN2CCCCC2)nn(-c2ccc(Cl)cc2Cl)c1-c1ccc(C#CCO)cc1 [Compound 2-1, 1-(2,4-Dichloro-phenyl)-5-[4-(3-hydroxy-prop-1-ynyl)-phenyl]-4-methyl-1H-pyrazole-3-carboxylic acid piperidin-1-ylamide]
[1]; Table 7, read-out: CB2 Ki
  Ki: 1490 nM
[2]; CB1 Ki, Table 7
  Ki: 33.1 nM

## Cc1c(C(=O)NN2CCCCC2)nn(-c2ccc(Cl)cc2Cl)c1-c1ccc(C#CCCO)cc1 [Compound 2-2]
[1]; Table 7, read-out: CB2 Ki
  Ki: 441 nM
[2]; CB1 Ki, Table 7
  Ki: 19.7 nM

## Cc1c(C(=O)NN2CCCCC2)nn(-c2ccc(Cl)cc2Cl)c1-c1ccc(C#CCCC#N)cc1 [Compound 2-3]
[1]; Table 7, read-out: CB2 Ki
  Ki: 127 nM
[2]; CB1 Ki, Table 7
  Ki: 0.35 nM
